Like-named read-outs stand apart in the source and are kept apart here.
Key:
[1] = tested on: Staphylococcus aureus (BAA-1717); test: Checkerboard combination / MIC assay with S. aureus BAA-1717 (MRSA); type: cell-based; details: for Effect of individual antibiotic combinations: S. aureus BAA-1717
Method: (§1) Colonies were suspended in PBS. The absorbance of each suspension was measured with a spectrophotometer, and then the suspension was adjusted to 1×10^6 CFU/mL. The testing inoculum was prepared within 20 minutes before adding to wells of the test plate. Final cellular density in the checkerboard assays was 5×10^5 CFU/mL.
(§2) The combination effect of antibacterial substances administered together was evaluated by an in vitro checkerboard combination method with Staphylococcus aureus (ATCC 29213) and Staphylococcus aureus (BAA-1717). Ramizol and Chlopam were tested alone in 11 points by two-fold serial titration and in combination with different commercial antibiotics which were tested in a 7-point titration alone and in combination with Ramizol and Chlopam using the checkerboard technique as recommended by the Clinical & Laboratory Standards Institute (CLSI. Methods for Dilution In Antimicrobial Susceptibility Tests for Bacteria That Grow Aerobically; Approved Standard-Eighth Edition. CLSI document M07-A8 (ISBN 1-56238-689-1). Vol. 29 No. 2. Clinical and Laboratory Standards Institute, USA, 2009). The commercial antibiotics were also tested alone. Twenty-four checkerboard tests were performed.
(§3) The starting concentration of Ramizol, Chlopam, and the commercial antibiotics was four fold of the MIC. The testing range for each combination was described in the following summary tables.
(§4) Compound dilutions of Ramizol and Chlopam were performed in 100% DMSO and the final DMSO concentration in all test wells was 2%. Growth control wells also included 2% DMSO. CLSI protocol was followed for medium, inoculum preparation, and endpoint reading. The commercial antibiotics were dissolved and diluted in the CLSI specified diluent. The final inoculum count for each strain was 5×10^5 CFU/mL.
Each test substance was dissolved and diluted in 100% DMSO or specified solvent. Each test substance dilution (2 μL) was added to 96 μL broth CAMHB. CAMHB seeded with S. aureus BAA-1717 at 1×10^6 CFU/mL (100 μL) was then added to the plate to generate a final cell count at 5×10^5 CFU/mL.
(§5) Assay plates were incubated and MIC endpoints were read as described in the MIC assay. FIC (Fraction Inhibitory Concentration) and FIC Index (FICI) values for each test condition and the average of FICI values of all pairwise combinations were calculated to determine if synergy or antagonism existed between the two substances. The FIC index was determined by calculating the sum of the ratios of MICs for both substances. Arithmetically, the FIC Index of a combination of Substance 1 and Substance 2 was defined as following: FICI=Σ[FIC(Substance 1)+FIC(Substance 2)]=[(MIC of Substance 1 in combination/MIC of Substance 1 alone)+(MIC of Substance 2 in combination/MIC of Substance 2 alone)]. Synergy is defined as the FICI (Σ)≤0.5; additivity as FICI (Σ)>0.5 to ≤1; indifference as FICI (Σ)>1 to ≤4; antagonism is defined as the FICI (Σ)>4 (Zinner and Blaser, J. Journal of Antimicrobial Chemotherapy (1986), 17, 1-5; Amin, et al BMC Complementary & Alternative Medicine (2015), 15, 59; Zuo, et al. Molecules (2011), 16, 9819-9826).

[2] = tested on: Staphylococcus aureus (ATCC 29213); test: Checkerboard combination / MIC assay with S. aureus ATCC 29213; type: cell-based; details: S. aureus ATCC 29213; for MIC: Staphylococcus aureus, read-out: MIC of antibiotic alone
Method: as §1, §2, §3, §4
Cefepime, Daptomycin, Linezolid, Mupirocin, Oxacillin and Vancomycin were also tested alone. Each test substance was dissolved and diluted in 100% DMSO or specified solvent. Each test substance dilution (2 μL) was added to 96 μL broth CAMHB. CAMHB seeded with S. aureus ATCC 29213 at 1×10^6 CFU/mL (100 μL) was then added to the plate to generate a final cell count at 5×10^5 CFU/mL.
as §5

## CCCCCCCCCC(=O)N[C@@H](Cc1c[nH]c2ccccc12)C(=O)N[C@H](CC(N)=O)C(=O)N[C@@H](CC(=O)O)C(=O)N[C@@H]1C(=O)NCC(=O)N[C@@H](CCCN)C(=O)N[C@@H](CC(=O)O)C(=O)N[C@H](C)C(=O)N[C@@H](CC(=O)O)C(=O)NCC(=O)N[C@H](CO)C(=O)N[C@@H]([C@H](C)CC(=O)O)C(=O)N[C@@H](CC(=O)c2ccccc2N)C(=O)O[C@@H]1C [Daptomycin]
[1]; Chlopam 0.001953 μg/mL + labelled antibiotic at MIC of same cell, S. aureus ATCC BAA-1717
  FICI of combination with Chlopam: 1.0
[1]; Chlopam 0.001953 μg/mL, S. aureus ATCC BAA-1717
  MIC of antibiotic in combination with Chlopam: 0.5 µg/mL
[1]; Chlopam 0.003906 μg/mL + labelled antibiotic at MIC of same cell, S. aureus ATCC BAA-1717
  FICI of combination with Chlopam: 1.0
[1]; Chlopam 0.003906 μg/mL, S. aureus ATCC BAA-1717
  MIC of antibiotic in combination with Chlopam: 0.5 µg/mL
[1]; Chlopam 0.0078125 μg/mL + labelled antibiotic at MIC of same cell, S. aureus ATCC BAA-1717
  FICI of combination with Chlopam: 1.0
[1]; Chlopam 0.0078125 μg/mL, S. aureus ATCC BAA-1717
  MIC of antibiotic in combination with Chlopam: 0.5 µg/mL
[1]; Chlopam 0.015625 μg/mL + labelled antibiotic at MIC of same cell, S. aureus ATCC BAA-1717
  FICI of combination with Chlopam: 1.0
[1]; Chlopam 0.015625 μg/mL, S. aureus ATCC BAA-1717
  MIC of antibiotic in combination with Chlopam: 0.5 µg/mL
[1]; Chlopam 0.5 μg/mL + labelled antibiotic at MIC of same line, S. aureus ATCC BAA-1717
  FICI of combination with Chlopam: 1.0
[1]; Chlopam 0.5 μg/mL, S. aureus ATCC BAA-1717
  MIC of antibiotic in combination with Chlopam: 0.016 µg/mL
[1]; Chlopam and daptomycin: 0.001953 and 0.5, 0.003901 and 0.5, 0.0078125 and 0.5, 0.015625 and 0.5, 0.5 and 0.016 μg/mL
  Effect of individual antibiotic combinations: additive effect
[1]; Ramizol 0.015625 μg/mL + labelled antibiotic at MIC of same cell, S. aureus ATCC BAA-1717
  FICI of combination with Ramizol: 1.0
[1]; Ramizol 0.015625 μg/mL, S. aureus ATCC BAA-1717
  MIC of antibiotic in combination with Ramizol: 0.5 µg/mL
[1]; Ramizol 0.03125 μg/mL + labelled antibiotic at MIC of same cell, S. aureus ATCC BAA-1717
  FICI of combination with Ramizol: 1.0
[1]; Ramizol 0.03125 μg/mL, S. aureus ATCC BAA-1717
  MIC of antibiotic in combination with Ramizol: 0.5 µg/mL
[1]; Ramizol 0.0625 μg/mL + labelled antibiotic at MIC of same cell, S. aureus ATCC BAA-1717
  FICI of combination with Ramizol: 1.0
[1]; Ramizol 0.0625 μg/mL, S. aureus ATCC BAA-1717
  MIC of antibiotic in combination with Ramizol: 0.5 µg/mL
[1]; Ramizol 0.125 μg/mL + labelled antibiotic at MIC of same line, S. aureus ATCC BAA-1717
  FICI of combination with Ramizol: 1.0
[1]; Ramizol 0.125 μg/mL, S. aureus ATCC BAA-1717
  MIC of antibiotic in combination with Ramizol: 0.5 µg/mL
[1]; Ramizol 2 μg/mL + labelled antibiotic at MIC of same line, S. aureus ATCC BAA-1717
  FICI of combination with Ramizol: 1.0
[1]; Ramizol 2 μg/mL, S. aureus ATCC BAA-1717
  MIC of antibiotic in combination with Ramizol: 0.25 µg/mL
[1]; Ramizol 4 μg/mL + labelled antibiotic at MIC of same cell, S. aureus ATCC BAA-1717
  FICI of combination with Ramizol: 1.0
[1]; Ramizol 4 μg/mL, S. aureus ATCC BAA-1717
  MIC of antibiotic in combination with Ramizol: 0.016 µg/mL
[1]; Ramizol and daptomycin: 0.015625 and 0.5, 0.03125 and 0.5, 0.0625 and 0.5, 0.125 and 0.5, 2 and 0.25, 4 and 0.016 μg/mL
  Effect of individual antibiotic combinations: additive effect
[1]; Staphylococcus aureus, ATCC BAA-1717 / BAA-1717, Table 4, checkerboard series with Chlopam, S. aureus ATCC BAA-1717, read-out: MIC of antibiotic alone
  MIC: 0.5 µg/mL
[1]; Table 7, checkerboard series with Ramizol, S. aureus ATCC BAA-1717
  MIC of antibiotic alone: 0.5 µg/mL
[1]; labelled antibiotic + Chlopam, mean of all pairwise combinations, S. aureus ATCC BAA-1717
  mean FICI of combination with Chlopam: 1.2
[1]; labelled antibiotic + Ramizol, mean of all pairwise combinations, S. aureus ATCC BAA-1717
  mean FICI of combination with Ramizol: 1.1
[2]; Chlopam 0.003906 μg/mL + labelled antibiotic at MIC of same cell
  FICI of combination with Chlopam: 1.0
[2]; Chlopam 0.003906 μg/mL
  MIC of antibiotic in combination with Chlopam: 0.5 µg/mL
[2]; Chlopam 0.0078125 μg/mL + labelled antibiotic at MIC of same cell
  FICI of combination with Chlopam: 1.0
[2]; Chlopam 0.0078125 μg/mL
  MIC of antibiotic in combination with Chlopam: 0.5 µg/mL
[2]; Chlopam 0.015625 μg/mL + labelled antibiotic at MIC of same cell
  FICI of combination with Chlopam: 1.0
[2]; Chlopam 0.015625 μg/mL
  MIC of antibiotic in combination with Chlopam: 0.5 µg/mL
[2]; Chlopam 0.25 μg/mL + labelled antibiotic at MIC of same cell
  FICI of combination with Chlopam: 1.0
[2]; Chlopam 0.25 μg/mL
  MIC of antibiotic in combination with Chlopam: 0.25 µg/mL
[2]; Chlopam 0.5 μg/mL + labelled antibiotic at MIC of same cell
  FICI of combination with Chlopam: 1.0
[2]; Chlopam 0.5 μg/mL
  MIC of antibiotic in combination with Chlopam: 0.016 µg/mL
[2]; Chlopam and daptomycin: 0.003901 and 0.5, 0.0078125 and 0.5, 0.015625 and 0.5, 0.25 and 0.25, 0.5 and 0.016 μg/mL
  Effect of individual antibiotic combinations: additive effect
[2]; Ramizol 0.015625 μg/mL + labelled antibiotic at MIC of same cell
  FICI of combination with Ramizol: 1.0
[2]; Ramizol 0.015625 μg/mL
  MIC of antibiotic in combination with Ramizol: 0.5 µg/mL
[2]; Ramizol 0.03125 μg/mL + labelled antibiotic at MIC of same cell
  FICI of combination with Ramizol: 1.0
[2]; Ramizol 0.03125 μg/mL
  MIC of antibiotic in combination with Ramizol: 0.5 µg/mL
[2]; Ramizol 0.0625 μg/mL + labelled antibiotic at MIC of same cell
  FICI of combination with Ramizol: 1.0
[2]; Ramizol 0.0625 μg/mL
  MIC of antibiotic in combination with Ramizol: 0.5 µg/mL
[2]; Ramizol 0.125 μg/mL + labelled antibiotic at MIC of same cell
  FICI of combination with Ramizol: 1.0
[2]; Ramizol 0.125 μg/mL
  MIC of antibiotic in combination with Ramizol: 0.5 µg/mL
[2]; Ramizol 4 μg/mL + labelled antibiotic at MIC of same cell
  FICI of combination with Ramizol: 1.0
[2]; Ramizol 4 μg/mL
  MIC of antibiotic in combination with Ramizol: 0.016 µg/mL
[2]; Ramizol and daptomycin: 0.015625 and 0.5, 0.03125 and 0.5, 0.0625 and 0.5, 0.125 and 0.5, 2 and 0.25, 2 and 0.125, 2 and 0.063, 2 and 0.031, 4 and 0.016 μg/mL
  Effect of individual antibiotic combinations: additive effect
[2]; ATCC29213, Table 4, checkerboard series with Chlopam
  MIC: 0.5 µg/mL
[2]; ATCC29213, Table 7, checkerboard series with Ramizol
  MIC: 0.5 µg/mL
[2]; labelled antibiotic + Chlopam, mean of all pairwise combinations
  mean FICI of combination with Chlopam: 1.1
[2]; labelled antibiotic + Ramizol
  Effect of the combinations with Ramizol (by mean FICI): additive effect
[2]; labelled antibiotic + Ramizol, mean of all pairwise combinations
  mean FICI of combination with Ramizol: 1.0
